Like-named read-outs stand apart in the source and are kept apart here.
Legend:
HepG2 = assay: MTT cytotoxicity assay, hepatocellular carcinoma cells; assay type: cell-based, human; conditions: for IC50: Homo sapiens, HepG2, MTT, 48 hrs incubation
Protocol: (§1) The cytotoxic activity of the compounds was tested against different mammalian cancer cells, prostate carcinoma cells (PC-3), hepatocellular carcinoma (HepG2) and colon cancer cells (HCT-116) and against African green monkey kidney cell line (Vero-B). The cell lines were obtained from American Type Culture Collection (ATCC). The cells were cultivated at 37° C. and 10% CO2 in DMEM (Lonza, 12-604F) medium supplemented with 10% fetal bovine serum (FBS, Lonza, Cat. No. 14-801E), 100 IU/ml penicillin and 100 μg/ml streptomycin (Lonza, 17-602E). Cisplatin (cis-diamineplatinum (II) dichloride) was used as a positive control and was obtained from Sigma then dissolved in 0.9% saline then stored as 8 mM stock solution at −20° C. The synthesized compounds were solubilized in DMSO and stored at −20° C. 0.5% crystal violet was prepared in Methanol and was used to stain the viable cells (Feoktistova, Geserick et al. 2016). Crystal violet binds to proteins and DNA in the adherent and viable cells so the stain is an indicator for the viability of the treated cells. The viability of the cells were quantified by using MTT reagent (3-(4,5-dimethylthiazol-2-yl)-2,5-diphenyl tetrazolium bromide), which measure the activity of mitochondrial dehydrogenase in the viable cells (Slater, Sawyer et al. 1963, Mosmann 1983).
(§2) Cytotoxicity was further assayed as follows. The cells were seeded in 96-well plate as 5*10^4 cells/mL (100 μL/well). A serial dilutions of tested compounds or cisplatin (100, 30, 10, 3.3, 1.1 or 0.37 μM) was added after overnight incubation of the cells at 37° C. and 5% CO2. DMSO was used as a control (0.1%). The cells were incubated for 48 hrs. After that, 15 μl of MTT (5 mg/mL PBS) was added to each well and incubated for another 4 hours. The formazan crystals were solubilized by 100 μL acidified SDS solution (10% SDS/0.01 M HCl). The absorbance was measured after 14 hours of incubation at 37° C. and 5% CO2 at 570 nm by Biotech plate reader. Each experiment was repeated three times and standard deviation was calculated (±). IC50% was calculated as the concentration that cause 50% inhibition for cell growth. The growth of the cells were monitored and the images were acquired by Gx microscopes (GXMGXD202 Inverted Microscope) (10× Eyepiece) after staining with crystal violet.

PC-3 = assay: MTT cytotoxicity assay, prostate carcinoma cells; assay type: cell-based, human; conditions: for IC50: Homo sapiens, PC-3, MTT, 48 hrs incubation
Protocol: as §1, §2

HCT-116 = assay: MTT cytotoxicity assay, colon cancer cells; assay type: cell-based, human; conditions: for IC50: Homo sapiens, HCT-116, MTT, 48 hrs incubation
Protocol: as §1, §2

Vero-B = assay: MTT cytotoxicity assay, normal kidney cell line; assay type: cell-based, African green monkey; conditions: Chlorocebus sabaeus, Vero B; Table 1; MTT, 48 hrs incubation; read-out: VERO-B (IC50% μM)
Protocol: as §1, §2

Compound: O=C(/C=C/c1ccc(F)cc1)[C@H]1[C@H](c2ccc(F)cc2)[C@H]2CSCN2[C@]12C(=O)Nc1ccc(Br)cc12 [Compound 4p, (3R,6′S,7′R,7a′S)-5-bromo-7′-(4-fluorophenyl)-6′-((E)-3-(4-fluorophenyl)acryloyl)-1′,6′,7′,7a′-tetrahydro-3′H-spiro[indoline-3,5′-pyrrolo[1,2-c]thiazol]-2-one]
- IC50 (HepG2; read-out: HepG2 (IC50% μM)): 0.8 ± 0.1 µM
- IC50 (HepG2; read-out: HepG2 (IC50% μg/ml)): 0.5 µg/mL
- SI (HepG2; Selectivity Index from IC50 normal (VERO-B) and IC50 cancer (HepG2)): 3.75
- IC50 (PC-3; read-out: PC-3 (IC50% μM)): 1.5 ± 0.1 µM
- IC50 (PC-3; read-out: PC-3 (IC50% μg/ml)): 0.8 µg/mL
- SI (PC-3; Selectivity Index from IC50 normal (VERO-B) and IC50 cancer (PC-3)): 2
- IC50 (HCT-116; read-out: HCT-116 (IC50% μM)): 3.5 ± 0.3 µM
- IC50 (HCT-116; read-out: HCT-116 (IC50% μg/ml)): 2 µg/mL
- SI (HCT-116; Selectivity Index from IC50 normal (VERO-B) and IC50 cancer (HCT-116)): 0.9571
- IC50 (Vero-B): 3 µM

From patent publication US9822128B1, “Substituted spirooxindoles” (KING SAUD UNIVERSITY, priority 2017, dated 2017)
